Assay results taken from PMC12064818, “A general assay platform to study protein pharmacology using ligand-dependent structural dynamics” (Nature Communications, 2025).
“And” between values parts separate entries of the source, which are not always exact repeats. Equal values may be shown once.

Target: FLuc-C-NLuc (firefly luciferase) (Photinus pyralis, UniProt P08659, form not given/L550V)
Assay: SDR assay, FLuc-C-NLuc
Settings: for SDR + 10 mM ATP / SDR No ATP: 1 nM FLuc-C-NLuc, replicates; for SDR + 10 mM ATP / SDR No ATP / 1 nM FLuc-C-NLuc + 10 mM ATP, Mean / 1 nM FLuc-C-NLuc No ATP, Mean: Log [PTC124]; for SDR assay statistics Ave RLU / SDR assay statistics S:B / SDR assay statistics S:N / SDR assay statistics Z’: 32.8 µM ligand; for 1 nM FLuc-C-NLuc + 10 mM ATP, Mean / 1 nM FLuc-C-NLuc No ATP, Mean: SDR

Sequence of FLuc-C-NLuc (firefly luciferase) (P08659 2-550 L550V, form open): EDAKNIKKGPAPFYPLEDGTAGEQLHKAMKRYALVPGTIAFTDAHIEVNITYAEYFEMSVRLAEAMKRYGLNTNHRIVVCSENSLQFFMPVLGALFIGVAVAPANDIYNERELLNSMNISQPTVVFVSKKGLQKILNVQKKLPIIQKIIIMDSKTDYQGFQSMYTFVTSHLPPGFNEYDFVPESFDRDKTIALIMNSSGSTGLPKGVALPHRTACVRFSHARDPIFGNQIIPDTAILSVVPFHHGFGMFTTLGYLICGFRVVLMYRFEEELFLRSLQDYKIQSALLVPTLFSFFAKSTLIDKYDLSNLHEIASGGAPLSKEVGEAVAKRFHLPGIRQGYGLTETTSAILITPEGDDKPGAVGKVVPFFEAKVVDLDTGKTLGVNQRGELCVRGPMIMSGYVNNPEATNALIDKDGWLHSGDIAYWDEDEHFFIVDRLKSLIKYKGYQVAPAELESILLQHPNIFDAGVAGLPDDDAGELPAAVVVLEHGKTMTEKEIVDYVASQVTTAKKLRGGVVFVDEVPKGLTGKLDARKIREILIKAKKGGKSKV

In the case of `O=C(O)c1cccc(-c2noc(-c3ccccc3F)n2)c1` [PTC124, reference compound], the “pSDR50, FLuc-C-NLuc (1 nM)” value (0 μM ATP) is reported as 5.88 ± 0.04, the “SDR + 10 mM ATP” value (M -4.48) is reported as 7557.2 RLU and 7497.6 RLU and 7631.5 RLU and 7551.6 RLU and 7524.6 RLU and 7378.2 RLU and the “SDR No ATP” value (M -4.48) is reported as 7094.5 RLU and 7036.1 RLU and 7197.7 RLU and 7251.5 RLU and 7107.6 RLU and 7010.0 RLU. The “SDR + 10 mM ATP” value (M -4.96) was 8653.1 RLU and 8918.3 RLU and 8729.5 RLU and 8753.4 RLU and 8625.3 RLU and 8631.1 RLU, the “SDR No ATP” value (M -4.96) was 7649.4 RLU and 7690.6 RLU and 7782.9 RLU and 7784.7 RLU and 7753.8 RLU and 7789.6 RLU and the “SDR + 10 mM ATP” value (M -5.44) was 9503.1 RLU and 9394.8 RLU and 9366.2 RLU and 9511.1 RLU and 9276.8 RLU and 9264.6 RLU. For the same molecule, the “SDR No ATP” value (M -5.44) was 7463.4 RLU and 7521.3 RLU and 7506.8 RLU and 7660.8 RLU and 7389.5 RLU and 7591.3 RLU, the “SDR + 10 mM ATP” value (M -5.91) was 9834.3 RLU and 9880.8 RLU and 9675.2 RLU and 9786.2 RLU and 9362.5 RLU and 9414.4 RLU and the “SDR No ATP” value (M -5.91) was 7041.2 RLU and 7015.2 RLU and 7004.0 RLU and 7050.2 RLU and 7076.1 RLU and 7039.0 RLU. The “SDR + 10 mM ATP” value (M -6.39) was 9915.0 RLU and 9970.8 RLU and 10012.5 RLU and 10081.2 RLU and 9830.9 RLU and 9904.0 RLU, the “SDR No ATP” value (M -6.39) was 6691.1 RLU and 6782.7 RLU and 6754.8 RLU and 6847.3 RLU and 6762.8 RLU and 6799.3 RLU and the “SDR + 10 mM ATP” value (M -6.87) was 10082.6 RLU and 10234.0 RLU and 10143.0 RLU and 10158.0 RLU and 9950.0 RLU and 10015.6 RLU. For the same molecule, the “SDR No ATP” value (M -6.87) was 6611.5 RLU and 6294.6 RLU and 6649.4 RLU and 6762.3 RLU and 6579.8 RLU and 6635.0 RLU, the “SDR + 10 mM ATP” value (M -7.35) was 10197.1 RLU and 10347.4 RLU and 10179.3 RLU and 10327.2 RLU and 10158.4 RLU and 10151.6 RLU and the “SDR No ATP” value (M -7.35) was 6611.5 RLU and 6675.5 RLU and 6753.6 RLU and 6721.7 RLU and 6667.7 RLU and 6659.2 RLU. For the same molecule, the “SDR + 10 mM ATP” value (M -7.82) was 10273.2 RLU and 10529.0 RLU and 10260.9 RLU and 10390.3 RLU and 10195.8 RLU and 10173.3 RLU, the “SDR No ATP” value (M -7.82) was 6601.3 RLU and 6794.9 RLU and 6657.3 RLU and 6777.0 RLU and 6066.9 RLU and 6627.0 RLU and the “SDR + 10 mM ATP” value (M -8.30) was 10428.2 RLU and 10351.9 RLU and 10431.4 RLU and 10340.3 RLU and 10350.0 RLU and 10135.7 RLU. The “SDR No ATP” value (M -8.30) was 6797.1 RLU and 6778.7 RLU and 6811.3 RLU and 6783.1 RLU and 6776.8 RLU and 6755.1 RLU, the “SDR + 10 mM ATP” value (M -8.78) was 10307.0 RLU and 10240.9 RLU and 10295.8 RLU and 10255.7 RLU and 10212.3 RLU and 10156.0 RLU and the “SDR No ATP” value (M -8.78) was 6765.6 RLU and 6820.8 RLU and 6789.0 RLU and 6870.9 RLU and 6762.2 RLU and 6786.7 RLU. For the same molecule, the “SDR + 10 mM ATP” value (M -9.25) was 9955.6 RLU and 10061.6 RLU and 10070.3 RLU and 10144.7 RLU and 9901.2 RLU and 9937.3 RLU, the “SDR No ATP” value (M -9.25) was 6778.5 RLU and 6738.4 RLU and 6784.4 RLU and 6835.7 RLU and 6812.5 RLU and 6775.6 RLU and the “SDR + 10 mM ATP” value (M -9.73) was 9060.9 RLU and 8791.4 RLU and 9269.7 RLU and 9103.3 RLU and 8979.5 RLU and 9077.2 RLU. The “SDR No ATP” value (M -9.73) was 6814.0 RLU and 6880.4 RLU and 6857.6 RLU and 6871.7 RLU (2×) and 6648.1 RLU, the “SDR + 10 mM ATP” value (M -10.21) was 8039.8 RLU and 7910.0 RLU and 8237.3 RLU and 8034.2 RLU and 8059.8 RLU and 8095.1 RLU and the “SDR No ATP” value (M -10.21) was 6863.1 RLU and 6890.7 RLU and 6909.9 RLU and 6915.4 RLU and 6885.5 RLU and 6851.9 RLU. The “SDR + 10 mM ATP” value (M -10.69) was 7243.2 RLU and 7192.1 RLU and 7498.0 RLU and 7333.4 RLU and 7436.9 RLU and 7459.7 RLU, the “SDR No ATP” value (M -10.69) was 6866.7 RLU and 6851.6 RLU (2×) and 6906.1 RLU and 6919.7 RLU and 6944.4 RLU and the “SDR + 10 mM ATP” value (M -11.16) was 6972.7 RLU and 6906.8 RLU (2×) and 7044.6 RLU and 7092.1 RLU and 7092.6 RLU. For the same molecule, the “SDR No ATP” value (M -11.16) was 6852.5 RLU and 6810.5 RLU and 6865.3 RLU and 6827.1 RLU and 6885.6 RLU and 6853.6 RLU, the “SDR + 10 mM ATP” value (M -11.64) was 6987.2 RLU and 6840.0 RLU and 7030.1 RLU and 6788.2 RLU and 7034.1 RLU and 6802.7 RLU and the “SDR No ATP” value (M -11.64) was 6913.4 RLU and 6769.3 RLU and 6893.0 RLU and 6868.3 RLU and 6877.6 RLU and 6825.9 RLU. The “pSDR50, FLuc-C-NLuc (1 nM)” value (10 μM ATP) was 9.95 ± 0.05, the “SDR assay statistics Ave RLU” value (FLuc-C-NLuc (1 nM) + 10 mM ATP) was 8287.4 RLU and the “SDR assay statistics S:B” value (FLuc-C-NLuc (1 nM) + 10 mM ATP) was 1.2. The “SDR assay statistics S:N” value (FLuc-C-NLuc (1 nM) + 10 mM ATP) was 3.4, the “SDR assay statistics Z’” value (FLuc-C-NLuc (1 nM) + 10 mM ATP) was -0.259 and the “SDR assay statistics Ave RLU” value (FLuc-C-NLuc (1 nM) No ATP) was 7850.3 RLU. The “SDR assay statistics S:B” value (FLuc-C-NLuc (1 nM) No ATP) was 1.2, the “SDR assay statistics S:N” value (FLuc-C-NLuc (1 nM) No ATP) was 2.6 and the “SDR assay statistics Z’” value (FLuc-C-NLuc (1 nM) No ATP) was -0.605. The “1 nM FLuc-C-NLuc + 10 mM ATP, Mean” value (M -4.48) was 7523.5 RLU, the “1 nM FLuc-C-NLuc No ATP, Mean” value (M -4.48) was 7116.2 RLU and the “1 nM FLuc-C-NLuc + 10 mM ATP, Mean” value (M -4.96) was 8718.4 RLU. The “1 nM FLuc-C-NLuc No ATP, Mean” value (M -4.96) was 7741.8 RLU, the “1 nM FLuc-C-NLuc + 10 mM ATP, Mean” value (M -5.44) was 9386.1 RLU and the “1 nM FLuc-C-NLuc No ATP, Mean” value (M -5.44) was 7522.2 RLU. The “1 nM FLuc-C-NLuc + 10 mM ATP, Mean” value (M -5.91) was 9658.9 RLU, the “1 nM FLuc-C-NLuc No ATP, Mean” value (M -5.91) was 7037.6 RLU and the “1 nM FLuc-C-NLuc + 10 mM ATP, Mean” value (M -6.39) was 9952.4 RLU. The “1 nM FLuc-C-NLuc No ATP, Mean” value (M -6.39) was 6773.0 RLU, the “1 nM FLuc-C-NLuc + 10 mM ATP, Mean” value (M -6.87) was 10097.2 RLU and the “1 nM FLuc-C-NLuc No ATP, Mean” value (M -6.87) was 6588.7 RLU. The “1 nM FLuc-C-NLuc + 10 mM ATP, Mean” value (M -7.35) was 10226.8 RLU, the “1 nM FLuc-C-NLuc No ATP, Mean” value (M -7.35) was 6681.5 RLU and the “1 nM FLuc-C-NLuc + 10 mM ATP, Mean” value (M -7.82) was 10303.8 RLU. For the same molecule, the “1 nM FLuc-C-NLuc No ATP, Mean” value (M -7.82) was 6587.4 RLU, the “1 nM FLuc-C-NLuc + 10 mM ATP, Mean” value (M -8.30) was 10339.6 RLU and the “1 nM FLuc-C-NLuc No ATP, Mean” value (M -8.30) was 6783.7 RLU. The “1 nM FLuc-C-NLuc + 10 mM ATP, Mean” value (M -8.78) was 10244.6 RLU, the “1 nM FLuc-C-NLuc No ATP, Mean” value (M -8.78) was 6799.2 RLU and the “1 nM FLuc-C-NLuc + 10 mM ATP, Mean” value (M -9.25) was 10011.8 RLU. The “1 nM FLuc-C-NLuc No ATP, Mean” value (M -9.25) was 6787.5 RLU, the “1 nM FLuc-C-NLuc + 10 mM ATP, Mean” value (M -9.73) was 9047.0 RLU and the “1 nM FLuc-C-NLuc No ATP, Mean” value (M -9.73) was 6823.9 RLU. For the same molecule, the “1 nM FLuc-C-NLuc + 10 mM ATP, Mean” value (M -10.21) was 8062.7 RLU, the “1 nM FLuc-C-NLuc No ATP, Mean” value (M -10.21) was 6886.1 RLU and the “1 nM FLuc-C-NLuc + 10 mM ATP, Mean” value (M -10.69) was 7360.6 RLU. The “1 nM FLuc-C-NLuc No ATP, Mean” value (M -10.69) was 6890.0 RLU, the “1 nM FLuc-C-NLuc + 10 mM ATP, Mean” value (M -11.16) was 7002.6 RLU and the “1 nM FLuc-C-NLuc No ATP, Mean” value (M -11.16) was 6849.1 RLU. The “1 nM FLuc-C-NLuc + 10 mM ATP, Mean” value (M -11.64) was 6913.7 RLU and the “1 nM FLuc-C-NLuc No ATP, Mean” value (M -11.64) was 6857.9 RLU.
